In patent US20250243219A1, “MACROCYCLIC COMPOUNDS AND USES THEREOF” (Cypralis Limited, priority 2022, published 2025):

How the values were obtained:
cyclophilin D = cyclophilin D (Homo sapiens (Human), UniProt P30405); test: Functional peptidyl prolyl isomerase (PPIase) spectrophotometric assay, cyclophilin D; format: biochemical; settings: second value of CypA/D cell; read-out: Ki CypD
Outline: (§1)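 Cuvette-based UV/Vis assay of PPIase-catalysed cis-to-trans isomerisation of a peptide substrate. First-order rate constants fitted to absorbance, background rate subtracted. Ki derived from rate constant versus inhibitor concentration, typically 6-point curves in duplicate.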

[1] = Blood-brain barrier penetration, intravenous dosing; format: in vivo, rodents (mice or rats); settings: 3 mg/kg intravenous; for Brain concentration / Plasma concentration: at 30 min.
Method: Test compounds were administered to rodents (mice or rats) either orally, subcutaneously or intravenously. To determine blood or plasma concentrations blood samples were taken at different time points and analysed for the concentration of test compound by LC/MS. Brain concentrations were measured by sacrificing animals and LC/MS analysis of brain homogenate.
The results for Compounds (2), (19), (6) and (27) are summarised in Table 6 showing concentrations of the Compounds in blood plasma and the brain.

cyclophilin A = cyclophilin A (Homo sapiens (Human), UniProt P62937); test: Functional peptidyl prolyl isomerase (PPIase) spectrophotometric assay, cyclophilin A; format: biochemical; settings: first value of CypA/D cell
Sequence of cyclophilin A (P62937 whole entry, species assumed): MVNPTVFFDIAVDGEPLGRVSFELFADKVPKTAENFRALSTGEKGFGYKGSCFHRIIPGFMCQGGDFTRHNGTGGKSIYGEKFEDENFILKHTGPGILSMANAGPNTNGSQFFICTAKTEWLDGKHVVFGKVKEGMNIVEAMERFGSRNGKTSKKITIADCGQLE
Outline: as §1

[2] = system: permeabilised HepG2 cells; test: Calcium retention capacity (CRC) assay in permeabilised HepG2 cells (MPTP opening); format: cell-based, human; design: CRC [10 μM]: unit not given here; settings: compound at 10 μM; for CRC [10 μM]: digitonin permeabilised HepG2 cells; for CRC [10 μM] (ratio vs CsA): normalised to cyclosporin A, value in brackets
Outline: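 Digitonin-permeabilised HepG2 cells received trains of calcium pulses (typically 5 μM) monitored with Calcium Green-5N until buffering failed, marking permeability transition. Runs with and without compound; calcium retained at 10 μM compound expressed as ratio versus cyclosporin A positive control.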

SH-SY5Y cells = test: Thapsigargin treated cell death assay in SH-SY5Y cells; format: cell-based, human; settings: compound at 10 μM; positive = protection from cell death, negative = compound toxicity
Outline: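 SH-SY5Y neuroblastoma cells given compound (typically 1, 3 and 10 μM, triplicate) 30 min before thapsigargin, with cyclosporin A (3 and 10 μM) as positive control. Cell death read kinetically over 24 h by CellTox Green DNA-binding fluorescence; values are % recovery at 10 μM, usually at 8 h, positive meaning protection.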

Sequence of cyclophilin D (P30405 30-207, species assumed): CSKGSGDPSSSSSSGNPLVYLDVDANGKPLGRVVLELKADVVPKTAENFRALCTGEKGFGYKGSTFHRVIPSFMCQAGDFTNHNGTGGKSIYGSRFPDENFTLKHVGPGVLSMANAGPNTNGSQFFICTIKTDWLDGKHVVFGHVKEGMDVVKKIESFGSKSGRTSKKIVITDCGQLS

| Structure (SMILES) | Ki (cyclophilin D) | Blood-brain barrier passage [1] | Brain concentration [1] | Plasma concentration [1] | Ki (cyclophilin A) | CRC [10 μM] [2] | CRC [10 μM] (ratio vs CsA) [2] | SYSY [10 μM] % recovery (SH-SY5Y cells) |
| --- | --- | --- | --- | --- | --- | --- | --- | --- |
| CC(C)[C@@H]1OC(=O)C2(/C=C/c3ccc4ccc(nc4c3)N(C)N(C)C(=O)[C@@H]3CCCN(N3)C(=O)[C@H](C)NC1=O)COCOC2 [(19)] | 150 nM | passed the blood-brain barrier | 116 ng/mL | 74 ng/mL | 23 nM | 30 | 0.77 |  |
| CC(C)[C@@H]1OC(=O)C(C)(C)C/C=C/c2ccc3ccc(nc3c2)N(C)NC(=O)[C@@H]2CCCN(N2)C(=O)[C@H](C)NC1=O [Compound (6)] | > 10 nM | passed the blood-brain barrier | 197 ng/mL | 1216 ng/mL | > 10000 nM |  |  |  |
| CC(C)[C@@H]1OC(=O)C(C)(C)/C=C/c2ccc3ccc(nc3c2)N(C)NC(=O)[C@@H]2CCCN(N2)C(=O)[C@H](C2CC2)NC1=O [Compound (80)] | 22 nM |  |  |  | 4 nM | 25 | 1.00 | 29.2% |
| C[C@@H]1NC(=O)C(CCc2ccccc2)OC(=O)C(C)(C)/C=C/c2ccc3ccc(nc3c2)N(C)NC(=O)[C@@H]2CCCN(N2)C1=O (single isomer, unassigned) [(27)] |  | passed the blood-brain barrier | 285 ng/mL | 1382 ng/mL |  |  |  |  |
| CNC(=O)c1ccc(C[C@@H]2OC(=O)C(C)(C)/C=C/c3ccc4ccc(nc4c3)N(C)N(C)C(=O)[C@@H]3CCCN(N3)C(=O)[C@H](C)NC2=O)cc1 [Compound (12)] | 49 nM |  |  |  | 240 nM | 15 | 0.75 | 25% |
| COC[C@@]1(C)/C=C/c2ccc3ccc(nc3c2)N(C)NC(=O)[C@@H]2CCCN(N2)C(=O)[C@H](C)NC(=O)[C@H](C(C)C)OC1=O [Compound (13)] | 11 nM |  |  |  | 4.9 nM | 35 | 0.95 | 8.4% |
| CC(C)[C@@H]1NC(=O)C(C)(C)/C=C/c2ccc3ccc(nc3c2)N(C)NC(=O)[C@@H]2CCCN(N2)C(=O)[C@H](C)NC1=O [Compound (22)] | 27 nM |  |  |  | 13 nM | 25 | 0.83 | 4% |
| C[C@@H]1NC(=O)[C@H](C[C@H]2CCCN(C)C2)OC(=O)C(C)(C)/C=C/c2ccc3ccc(nc3c2)N(C)NC(=O)[C@@H]2CCCN(N2)C1=O [Compound (37)] | 160 nM |  |  |  | 150 nM | 5 | 0.33 | 41% |
| CC(C)[C@@H]1OC(=O)C(C)(C)/C=C/c2ccc3ccc(nc3c2)N(C)NC(=O)[C@@H]2CCCN(N2)C(=O)[C@H](CCC(=O)NCc2cnn(C)c2)NC1=O [Compound (68)] | 9.9 nM |  |  |  | 16 nM | 25 | 0.83 | 37% |
